Earlier results in patent US20090186826A1, “Cosmetic or dermopharmaceutical compositions of ceramides and polypeptides” (SEDERMA, priority 2003, published 2009).
Where no end group is shown, it is not given here.

Test system: fibroblasts
Conditions: reported by Senior et al. J. Cell Biol. 99, 870-874, 1984

Substance: VGVAPG [fragment of the protein called elastin]
- chemotactic activity: chemotactic activity
